Values of other authors, collected in patent US20090208616A1, “INTERVENTION TECHNIQUES FOR REDUCING CARCASS CONTAMINATION” (priority 2000, published 2009).
Where two headings read alike, the source gives them in different places.

Test system: Giardia Cysts

## NCl [Chloramine]
pH range 6 to 9, 5 ° C.
  CT value for 0.5-log inactivation of Giardia cysts by chloramine: 365 mg/L-min
  CT value for 1-log inactivation of Giardia cysts by chloramine: 735 mg/L-min
  CT value for 1.5-log inactivation of Giardia cysts by chloramine: 1100 mg/L-min
  CT value for 2-log inactivation of Giardia cysts by chloramine: 1470 mg/L-min
  CT value for 2.5-log inactivation of Giardia cysts by chloramine: 1830 mg/L-min
  CT value for 3-log inactivation of Giardia cysts by chloramine: 2200 mg/L-min
pH range 6 to 9, 10 ° C.
  CT value for 0.5-log inactivation of Giardia cysts by chloramine: 310 mg/L-min
  CT value for 1-log inactivation of Giardia cysts by chloramine: 615 mg/L-min
  CT value for 1.5-log inactivation of Giardia cysts by chloramine: 930 mg/L-min
  CT value for 2-log inactivation of Giardia cysts by chloramine: 1230 mg/L-min
  CT value for 2.5-log inactivation of Giardia cysts by chloramine: 1540 mg/L-min
  CT value for 3-log inactivation of Giardia cysts by chloramine: 1850 mg/L-min
pH range 6 to 9, 15 ° C.
  CT value for 0.5-log inactivation of Giardia cysts by chloramine: 250 mg/L-min
  CT value for 1-log inactivation of Giardia cysts by chloramine: 500 mg/L-min
  CT value for 1.5-log inactivation of Giardia cysts by chloramine: 750 mg/L-min
  CT value for 2-log inactivation of Giardia cysts by chloramine: 1000 mg/L-min
  CT value for 2.5-log inactivation of Giardia cysts by chloramine: 1250 mg/L-min
  CT value for 3-log inactivation of Giardia cysts by chloramine: 1500 mg/L-min
pH range 6 to 9, 20 ° C.
  CT value for 0.5-log inactivation of Giardia cysts by chloramine: 185 mg/L-min
  CT value for 1-log inactivation of Giardia cysts by chloramine: 370 mg/L-min
  CT value for 1.5-log inactivation of Giardia cysts by chloramine: 550 mg/L-min
  CT value for 2-log inactivation of Giardia cysts by chloramine: 735 mg/L-min
  CT value for 2.5-log inactivation of Giardia cysts by chloramine: 915 mg/L-min
  CT value for 3-log inactivation of Giardia cysts by chloramine: 1100 mg/L-min
pH range 6 to 9, 25 ° C.
  CT value for 0.5-log inactivation of Giardia cysts by chloramine: 125 mg/L-min
  CT value for 1-log inactivation of Giardia cysts by chloramine: 250 mg/L-min
  CT value for 1.5-log inactivation of Giardia cysts by chloramine: 375 mg/L-min
  CT value for 2-log inactivation of Giardia cysts by chloramine: 500 mg/L-min
  CT value for 2.5-log inactivation of Giardia cysts by chloramine: 625 mg/L-min
  CT value for 3-log inactivation of Giardia cysts by chloramine: 750 mg/L-min
pH range 6 to 9, ≦1 ° C.
  CT value for 0.5-log inactivation of Giardia cysts by chloramine: 635 mg/L-min
  CT value for 1-log inactivation of Giardia cysts by chloramine: 1270 mg/L-min
  CT value for 1.5-log inactivation of Giardia cysts by chloramine: 1900 mg/L-min
  CT value for 2-log inactivation of Giardia cysts by chloramine: 2535 mg/L-min
  CT value for 2.5-log inactivation of Giardia cysts by chloramine: 3170 mg/L-min
  CT value for 3-log inactivation of Giardia cysts by chloramine: 3800 mg/L-min
